According to the supplement of paper PMC10307832:

Experiments:
Experiment in all cases: relative viability (nuclei count vs DMSO), 5 days (fraction); higher = more cells survive
NCI-H650 = test system: NCI-H650
Summary of the method: (§1)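 Values are medians from duplicate plates. Each reflects relative viability, defined as the nuclei count of treated wells over that of vehicle wells. Lung cancer cell lines in 1536-well plates were pin-tool dosed one day after seeding with one drug alone or with a fixed anchor-drug dose plus five library-drug doses (not always all listed) in √10 steps, then fixed, stained and imaged at 4× after 5 days.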

NCI-H1734 = test system: NCI-H1734
Summary of the method: as §1

NCI-H1563 = test system: NCI-H1563
Summary of the method: as §1

NCI-H1755 = test system: NCI-H1755
Summary of the method: as §1

NCI-H2126 = test system: NCI-H2126
Summary of the method: as §1

LC-2-ad = test system: LC-2-ad
Summary of the method: as §1

HCC-44 = test system: HCC-44
Summary of the method: as §1

NCI-H3122 = test system: NCI-H3122
Summary of the method: as §1

NCI-H1915 = test system: NCI-H1915
Summary of the method: as §1

EMC-BAC-2 = test system: EMC-BAC-2
Summary of the method: as §1

NCI-H727 = test system: NCI-H727
Summary of the method: as §1

HCC-15 = test system: HCC-15
Summary of the method: as §1

NCI-H2023 = test system: NCI-H2023
Summary of the method: as §1

HOP-62 = test system: HOP-62
Summary of the method: as §1

LU99A = test system: LU99A
Summary of the method: as §1

SW 1573 = test system: SW 1573
Summary of the method: as §1

NCI-H1437 = test system: NCI-H1437
Summary of the method: as §1

BEN = test system: BEN
Summary of the method: as §1

NCI-H1395 = test system: NCI-H1395
Summary of the method: as §1

NCI-H2170 = test system: NCI-H2170
Summary of the method: as §1

SMILES: Nc1cccc2c1CN(C1CCC(=O)NC1=O)C2=O (centres undefined) [Lenalidomide] + CC(C)C[C@H](NC(=O)[C@H](Cc1ccccc1)NC(=O)c1cnccn1)B(O)O [Bortezomib] (partner 0.002 µM)
- relative viability (NCI-H650; first compound 0.253 µM): 0.854
- relative viability (NCI-H650; first compound 2.53 µM): 0.893
- relative viability (NCI-H650; first compound 8 µM): 0.577
- relative viability (NCI-H1734; first compound 0.253 µM): 0.896
- relative viability (NCI-H1734; first compound 0.8 µM): 0.907
- relative viability (NCI-H1734; first compound 2.53 µM): 1.02
- relative viability (NCI-H1734; first compound 8 µM): 0.807
- relative viability (NCI-H1563; first compound 0.253 µM): 0.807
- relative viability (NCI-H1563; first compound 0.8 µM): 0.846
- relative viability (NCI-H1563; first compound 2.53 µM): 0.887
- relative viability (NCI-H1563; first compound 8 µM): 0.748
- relative viability (NCI-H1755; first compound 0.253 µM): 0.855
- relative viability (NCI-H1755; first compound 0.8 µM): 0.854
- relative viability (NCI-H1755; first compound 2.53 µM): 0.947
- relative viability (NCI-H1755; first compound 8 µM): 0.913
- relative viability (NCI-H2126; first compound 0.253 µM): 1.17
- relative viability (NCI-H2126; first compound 0.8 µM): 0.971
- relative viability (NCI-H2126; first compound 2.53 µM): 1.12
- relative viability (NCI-H2126; first compound 8 µM): 1.1
- relative viability (LC-2-ad; first compound 0.253 µM): 0.979
- relative viability (LC-2-ad; first compound 0.8 µM): 1.04
- relative viability (LC-2-ad; first compound 2.53 µM): 1.03
- relative viability (LC-2-ad; first compound 8 µM): 1.21
- relative viability (HCC-44; first compound 0.253 µM): 0.904
- relative viability (HCC-44; first compound 0.8 µM): 0.701
- relative viability (HCC-44; first compound 2.53 µM): 0.912
- relative viability (HCC-44; first compound 8 µM): 0.832
- relative viability (NCI-H3122; first compound 0.253 µM): 1.04
- relative viability (NCI-H3122; first compound 0.8 µM): 1.05
- relative viability (NCI-H3122; first compound 2.53 µM): 0.98
- relative viability (NCI-H3122; first compound 8 µM): 1.13
- relative viability (NCI-H1915; first compound 0.253 µM): 0.985
- relative viability (NCI-H1915; first compound 0.8 µM): 0.69
- relative viability (NCI-H1915; first compound 2.53 µM): 1.06
- relative viability (NCI-H1915; first compound 8 µM): 0.952
- relative viability (EMC-BAC-2; first compound 0.253 µM): 1.04
- relative viability (EMC-BAC-2; first compound 0.8 µM): 0.857
- relative viability (EMC-BAC-2; first compound 2.53 µM): 1.15
- relative viability (EMC-BAC-2; first compound 8 µM): 0.913
- relative viability (NCI-H727; first compound 0.253 µM): 0.81
- relative viability (NCI-H727; first compound 2.53 µM): 1.05
- relative viability (NCI-H727; first compound 8 µM): 0.791
- relative viability (HCC-15; first compound 0.253 µM): 1.02
- relative viability (HCC-15; first compound 2.53 µM): 1.34
- relative viability (HCC-15; first compound 8 µM): 0.959
- relative viability (NCI-H2023; first compound 0.253 µM): 0.954
- relative viability (NCI-H2023; first compound 0.8 µM): 1.08
- relative viability (NCI-H2023; first compound 2.53 µM): 1.08
- relative viability (NCI-H2023; first compound 8 µM): 0.744
- relative viability (HOP-62; first compound 0.253 µM): 0.701
- relative viability (HOP-62; first compound 0.8 µM): 0.417
- relative viability (HOP-62; first compound 2.53 µM): 1.06
- relative viability (HOP-62; first compound 8 µM): 0.722
- relative viability (LU99A; first compound 0.253 µM): 1.06
- relative viability (LU99A; first compound 0.8 µM): 1.11
- relative viability (LU99A; first compound 2.53 µM): 1.05
- relative viability (LU99A; first compound 8 µM): 0.73
- relative viability (SW 1573; first compound 0.253 µM): 1.14
- relative viability (SW 1573; first compound 0.8 µM): 1.05
- relative viability (SW 1573; first compound 2.53 µM): 1.23
- relative viability (SW 1573; first compound 8 µM): 1.03
- relative viability (NCI-H1437; first compound 0.253 µM): 0.523
- relative viability (NCI-H1437; first compound 0.8 µM): 0.571
- relative viability (NCI-H1437; first compound 2.53 µM): 0.95
- relative viability (NCI-H1437; first compound 8 µM): 0.501
- relative viability (BEN; first compound 0.253 µM): 1.04
- relative viability (BEN; first compound 0.8 µM): 0.505
- relative viability (BEN; first compound 2.53 µM): 1.02
- relative viability (BEN; first compound 8 µM): 0.524

SMILES: CCNC(=O)c1noc(-c2cc(C(C)C)c(O)cc2O)c1-c1ccc(CN2CCOCC2)cc1 [Luminespib] + CC1(C)CCC(c2ccc(Cl)cc2)=C(CN2CCN(c3ccc(C(=O)NS(=O)(=O)c4ccc(N[C@H](CCN5CCOCC5)CSc5ccccc5)c(S(=O)(=O)C(F)(F)F)c4)cc3)CC2)C1 [Navitoclax] (partner 0.5 µM)
- relative viability (NCI-H1734; first compound 0.002 µM): 0.878
- relative viability (NCI-H1734; first compound 0.006325 µM): 0.698
- relative viability (NCI-H1734; first compound 0.02 µM): 0.777
- relative viability (NCI-H1734; first compound 0.06325 µM): 0.172
- relative viability (NCI-H1734; first compound 0.2 µM): 0.122
- relative viability (NCI-H1755; first compound 0.002 µM): 0.981
- relative viability (NCI-H1755; first compound 0.006325 µM): 0.959
- relative viability (NCI-H1755; first compound 0.02 µM): 0.973
- relative viability (NCI-H1755; first compound 0.06325 µM): 0.971
- relative viability (NCI-H1755; first compound 0.2 µM): 0.933
- relative viability (NCI-H2126; first compound 0.002 µM): 0.852
- relative viability (NCI-H2126; first compound 0.006325 µM): 0.777
- relative viability (NCI-H2126; first compound 0.02 µM): 0.506
- relative viability (NCI-H2126; first compound 0.06325 µM): 0.864
- relative viability (NCI-H2126; first compound 0.2 µM): 0.874
- relative viability (LC-2-ad; first compound 0.002 µM): 0.41
- relative viability (LC-2-ad; first compound 0.006325 µM): 0.483
- relative viability (LC-2-ad; first compound 0.02 µM): 0.516
- relative viability (LC-2-ad; first compound 0.06325 µM): 0.0848
- relative viability (LC-2-ad; first compound 0.2 µM): 0.126
- relative viability (HCC-44; first compound 0.002 µM): 0.943
- relative viability (HCC-44; first compound 0.006325 µM): 0.99
- relative viability (HCC-44; first compound 0.02 µM): 1.18
- relative viability (HCC-44; first compound 0.06325 µM): 0.957
- relative viability (HCC-44; first compound 0.2 µM): 0.129
- relative viability (NCI-H3122; first compound 0.002 µM): 1.03
- relative viability (NCI-H3122; first compound 0.006325 µM): 0.956
- relative viability (NCI-H3122; first compound 0.02 µM): 1.05
- relative viability (NCI-H3122; first compound 0.06325 µM): 0.919
- relative viability (NCI-H3122; first compound 0.2 µM): 0.196
- relative viability (NCI-H1915; first compound 0.002 µM): 0.8
- relative viability (NCI-H1915; first compound 0.006325 µM): 0.793
- relative viability (NCI-H1915; first compound 0.02 µM): 0.803
- relative viability (NCI-H1915; first compound 0.06325 µM): 0.808
- relative viability (NCI-H1915; first compound 0.2 µM): 0.775
- relative viability (EMC-BAC-2; first compound 0.002 µM): 1.15
- relative viability (EMC-BAC-2; first compound 0.006325 µM): 1.09
- relative viability (EMC-BAC-2; first compound 0.02 µM): 1.12
- relative viability (EMC-BAC-2; first compound 0.06325 µM): 1.16
- relative viability (EMC-BAC-2; first compound 0.2 µM): 1.13
- relative viability (NCI-H727; first compound 0.002 µM): 0.43
- relative viability (NCI-H727; first compound 0.006325 µM): 0.449
- relative viability (NCI-H727; first compound 0.02 µM): 0.408
- relative viability (NCI-H727; first compound 0.06325 µM): 0.218
- relative viability (NCI-H727; first compound 0.2 µM): 0.27
- relative viability (HCC-15; first compound 0.002 µM): 0.647
- relative viability (HCC-15; first compound 0.006325 µM): 0.708
- relative viability (HCC-15; first compound 0.02 µM): 0.755
- relative viability (HCC-15; first compound 0.06325 µM): 0.44
- relative viability (HCC-15; first compound 0.2 µM): 0.419
- relative viability (NCI-H2023; first compound 0.002 µM): 0.969
- relative viability (NCI-H2023; first compound 0.006325 µM): 1.11
- relative viability (NCI-H2023; first compound 0.02 µM): 0.99
- relative viability (NCI-H2023; first compound 0.06325 µM): 0.0933
- relative viability (NCI-H2023; first compound 0.2 µM): 0.0995
- relative viability (NCI-H1395; first compound 0.002 µM): 1.42
- relative viability (NCI-H1395; first compound 0.006325 µM): 1.16
- relative viability (NCI-H1395; first compound 0.02 µM): 0.949
- relative viability (NCI-H1395; first compound 0.06325 µM): 0.407
- relative viability (NCI-H1395; first compound 0.2 µM): 0.338
- relative viability (HOP-62; first compound 0.002 µM): 1
- relative viability (HOP-62; first compound 0.006325 µM): 1.07
- relative viability (HOP-62; first compound 0.02 µM): 1.07
- relative viability (HOP-62; first compound 0.06325 µM): 0.909
- relative viability (HOP-62; first compound 0.2 µM): 0.103
- relative viability (LU99A; first compound 0.002 µM): 0.878
- relative viability (LU99A; first compound 0.006325 µM): 0.815
- relative viability (LU99A; first compound 0.02 µM): 0.496
- relative viability (LU99A; first compound 0.06325 µM): 0.253
- relative viability (LU99A; first compound 0.2 µM): 0.119
- relative viability (SW 1573; first compound 0.002 µM): 0.927
- relative viability (SW 1573; first compound 0.006325 µM): 0.892
- relative viability (SW 1573; first compound 0.02 µM): 0.803
- relative viability (SW 1573; first compound 0.06325 µM): 0.0809
- relative viability (SW 1573; first compound 0.2 µM): 0.0666
- relative viability (NCI-H1437; first compound 0.002 µM): 1.06
- relative viability (NCI-H1437; first compound 0.006325 µM): 1.07
- relative viability (NCI-H1437; first compound 0.02 µM): 1.16
- relative viability (NCI-H1437; first compound 0.06325 µM): 0.318
- relative viability (NCI-H1437; first compound 0.2 µM): 0.128
- relative viability (BEN; first compound 0.002 µM): 0.0714
- relative viability (BEN; first compound 0.006325 µM): 0.0602
- relative viability (BEN; first compound 0.02 µM): 0.0673
- relative viability (BEN; first compound 0.06325 µM): 0.0655
- relative viability (BEN; first compound 0.2 µM): 0.0846
- relative viability (NCI-H2170; first compound 0.002 µM): 0.646
- relative viability (NCI-H2170; first compound 0.006325 µM): 0.596
- relative viability (NCI-H2170; first compound 0.02 µM): 0.293
- relative viability (NCI-H2170; first compound 0.06325 µM): 0.581
- relative viability (NCI-H2170; first compound 0.2 µM): 0.451
